Laboratory results from publication PMC9884426, “A phase 1 clinical trial of the repurposable acetyllysine mimetic, n-methyl-2-pyrrolidone (NMP), in relapsed or refractory multiple myeloma” (Clinical Epigenetics, 2023).
Read-outs that look alike come from different tables or passages of the source.

Test: Plasma pharmacokinetics of oral NMP by LCMSMS
Format: in vivo, human
Details: for AUC / Cmax / half-life / Tmax: human, po
Protocol: Blood samples were taken from patients before NMP and at one, two, four, eight and 24 h post dose. Plasma samples (20 μl) were prepared by adding five volumes of methanol containing deuterated internal standard. The samples were vortexed then centrifuged, and the supernatant was transferred to a vial and injected onto the LCMSMS. The LCMSMS system consisted of a Shimadzu UHPLC with a SCIEX 6500QTrap, a KinetexC18 (3 × 50 mm, 2.6 μm) column and using a gradient of 0.1% formic acid and acetonitrile. The initial conditions were 0.5 ml/min and 2% acetonitrile; this was held for 1 min then increased to 20% acetonitrile at 2 min then increased to 70% acetonitrile and held for 0.5 min. Equilibration time was 0.5 min. MRMs for NMP were 100 → 58, 100 → 69, 100 → 41 and for the internal standard d9NMP 109 → 62, […]. PK analysis was performed using Pkanalix (version 2021R1. Antony, France: Lixoft SAS, 2021).

[1] = all dose levels 25-800 mg oral, N = 28 profiles, plasma

CN1CCCC1=O [NMP, N-methyl-2-pyrrolidone]
Maximum plasma concentration (Cmax), highest achieved (800 mg dose, oral, one patient): 16700 ng/mL | CL/F, Overall Average [1]: 19.25 L⋅h⁻¹ | Half-life, Overall Average [1]: ~ 1.5 h | V/F, Overall Average [1]: 39.49 L | Tmax, Overall Average (all dose levels 25-800 mg oral, N = 29 profiles, plasma): 33 min | single NMP dose predicted to be required to attain BET-inhibitory peak plasma concentrations (e.g. > 1 mM peak plasma, based on NMP's PK): more than 4.5 g | AUC (plasma, 25 mg, oral 25 mg, patient RMH-01 occasion 6, plasma, read-out: AUC): 1500 ng·h/mL | Cmax (plasma, 25 mg, oral 25 mg, patient RMH-01 occasion 6, plasma, read-out: Cmax): 930 ng/mL | half-life (plasma, 25 mg, oral 25 mg, patient RMH-01 occasion 6, plasma, read-out: Half-life (converted)): 52.2 min | Tmax (plasma, 25 mg, oral 25 mg, patient RMH-01 occasion 6, plasma, read-out: Tmax): 30 min | AUC (plasma, 50 mg, oral 50 mg, average of N = 5 profiles, plasma, read-out: AUC, Average): 2170 ng·h/mL | Cmax (plasma, 50 mg, oral 50 mg, average of N = 5 profiles, plasma, read-out: Cmax, Average): 1260 ng/mL | half-life (plasma, 50 mg, oral 50 mg, average of N = 5 profiles, plasma, read-out: Half-life, Average (converted)): 64.8 min | Tmax (plasma, 50 mg, oral 50 mg, average of N = 5 profiles, plasma, read-out: Tmax, Average): 30 min | AUC (plasma, 50 mg, oral 50 mg, individual profiles, patient RMH-01 occasions 1-5, plasma, read-out: AUC): 2830 ng·h/mL | Cmax (plasma, 50 mg, oral 50 mg, individual profiles, patient RMH-01 occasions 1-5, plasma, read-out: Cmax): 1720 ng/mL | half-life (plasma, 50 mg, oral 50 mg, individual profiles, patient RMH-01 occasions 1-5, plasma, read-out: Half-life (converted)): 72.6 min | Tmax (plasma, 50 mg, oral 50 mg, individual profiles, patient RMH-01 occasions 1-5, plasma, read-out: Tmax): 30 min | AUC (plasma, 100 mg, oral 100 mg, average of N = 5 profiles, plasma, read-out: AUC, Average): 7130 ng·h/mL | Cmax (plasma, 100 mg, oral 100 mg, average of N = 5 profiles, plasma, read-out: Cmax, Average): 2570 ng/mL | half-life (plasma, 100 mg, oral 100 mg, average of N = 5 profiles, plasma, read-out: Half-life, Average (converted)): 110 min | Tmax (plasma, 100 mg, oral 100 mg, average of N = 5 profiles, plasma, read-out: Tmax, Average): 30 min | AUC (plasma, 100 mg, oral 100 mg, individual profiles, patient RMH-02 occasions 1-5, plasma, read-out: AUC): 6970 ng·h/mL | Cmax (plasma, 100 mg, oral 100 mg, individual profiles, patient RMH-02 occasions 1-5, plasma, read-out: Cmax): 2730 ng/mL | half-life (plasma, 100 mg, oral 100 mg, individual profiles, patient RMH-02 occasions 1-5, plasma, read-out: Half-life (converted)): 101 min | Tmax (plasma, 100 mg, oral 100 mg, individual profiles, patient RMH-02 occasions 1-5, plasma, read-out: Tmax): 30 min | half-life (plasma, 200 mg, oral 200 mg, average of N = 8 profiles, plasma, read-out: Half-life, Average (converted)): 88.2 min | AUC (plasma, 200 mg, oral 200 mg, average of N = 9 profiles, plasma, read-out: AUC, Average): 9510 ng·h/mL | Cmax (plasma, 200 mg, oral 200 mg, average of N = 9 profiles, plasma, read-out: Cmax, Average): 4050 ng/mL | Tmax (plasma, 200 mg, oral 200 mg, average of N = 9 profiles, plasma, read-out: Tmax, Average): 33.6 min | half-life (plasma, 200 mg, oral 200 mg, individual profiles (PMC-03, MON-04, MON-06, MON-07, PMC-08), plasma, read-out: Half-life (converted)): 84 min | Tmax (plasma, 200 mg, oral 200 mg, individual profiles (PMC-03, MON-04, PMC-05, MON-06, MON-07, PMC-08), plasma, read-out: Tmax): 30 min | AUC (plasma, 300 mg, oral 300 mg, average of N = 3 profiles, plasma, read-out: AUC, Average): 22200 ng·h/mL | Cmax (plasma, 300 mg, oral 300 mg, average of N = 3 profiles, plasma, read-out: Cmax, Average): 8060 ng/mL | half-life (plasma, 300 mg, oral 300 mg, average of N = 3 profiles, plasma, read-out: Half-life, Average (converted)): 96 min | Tmax (plasma, 300 mg, oral 300 mg, average of N = 3 profiles, plasma, read-out: Tmax, Average): 40.2 min | Cmax (plasma, 300 mg, oral 300 mg, individual profiles (PMC-09, MON-10, MON-11), plasma, read-out: Cmax): 10500 ng/mL | half-life (plasma, 300 mg, oral 300 mg, individual profiles (PMC-09, MON-10, MON-11), plasma, read-out: Half-life (converted)): 99.6 min | Tmax (plasma, 300 mg, oral 300 mg, individual profiles (PMC-09, MON-10, MON-11), plasma, read-out: Tmax): 30 min | AUC (plasma, 400 mg, oral 400 mg, average of N = 2 profiles, plasma, read-out: AUC, Average): 22200 ng·h/mL | Cmax (plasma, 400 mg, oral 400 mg, average of N = 2 profiles, plasma, read-out: Cmax, Average): 8310 ng/mL | half-life (plasma, 400 mg, oral 400 mg, average of N = 2 profiles, plasma, read-out: Half-life, Average (converted)): 94.2 min | Tmax (plasma, 400 mg, oral 400 mg, average of N = 2 profiles, plasma, read-out: Tmax, Average): 30 min | AUC (plasma, 400 mg, oral 400 mg, individual profiles (MON-11 occasion 2, MON-12), plasma, read-out: AUC): 28500 ng·h/mL | Cmax (plasma, 400 mg, oral 400 mg, individual profiles (MON-11 occasion 2, MON-12), plasma, read-out: Cmax): 8990 ng/mL | half-life (plasma, 400 mg, oral 400 mg, individual profiles (MON-11 occasion 2, MON-12), plasma, read-out: Half-life (converted)): 107 min | Tmax (plasma, 400 mg, oral 400 mg, individual profiles (MON-11 occasion 2, MON-12), plasma, read-out: Tmax): 30 min | AUC (plasma, 500 mg, oral 500 mg, patient MON-11 occasion 3, plasma, read-out: AUC): 40600 ng·h/mL | Cmax (plasma, 500 mg, oral 500 mg, patient MON-11 occasion 3, plasma, read-out: Cmax): 12700 ng/mL | half-life (plasma, 500 mg, oral 500 mg, patient MON-11 occasion 3, plasma, read-out: Half-life (converted)): 119 min | Tmax (plasma, 500 mg, oral 500 mg, patient MON-11 occasion 3, plasma, read-out: Tmax): 30 min | AUC (plasma, 600 mg, oral 600 mg, patient MON-11 occasion 4, plasma, read-out: AUC): 56700 ng·h/mL | Cmax (plasma, 600 mg, oral 600 mg, patient MON-11 occasion 4, plasma, read-out: Cmax): 14400 ng/mL | half-life (plasma, 600 mg, oral 600 mg, patient MON-11 occasion 4, plasma, read-out: Half-life (converted)): 130 min | Tmax (plasma, 600 mg, oral 600 mg, patient MON-11 occasion 4, plasma, read-out: Tmax): 30 min | AUC (plasma, 700 mg, oral 700 mg, patient MON-11 occasion 5, plasma, read-out: AUC): 57600 ng·h/mL
